Laboratory results reported in article PMC4832822, “Investigating the Influence of (Deoxy)fluorination on the Lipophilicity of Non‐UV‐Active Fluorinated Alkanols and Carbohydrates by a New log P Determination Method” (Angewandte Chemie (International Ed. in English), 2015).
Like-named read-outs stand apart in the source and are kept apart here.

Columns and labels:
[1] = milogP calculated using Molinspiration Cheminformatics; settings: Table SI14
[2] = log P determination by 19F NMR shake-flask method with internal fluorinated reference (octanol/water); settings: for logP: octanol/water; for ΔlogP (exp. logP vs logP lit): Table SI12
[3] = cited from earlier work
[4] = logP, 19F NMR, 25 °C, average value
[5] = method and temperature not provided, ref U.S. National Library of Medicine online database (chemidplus)
[6] = error (mean logP to three decimals), reference TFE (+0.36)
[7] = logP, single experiment, reference TFE (+0.36)
[8] = Average logP, 25 °C, reference TFE (+0.36)
[9] = error (mean logP to three decimals)
[10] = logP, octanol/water, 19F NMR, 25 °C, average value

Row | Structure (SMILES) | ΔlogP (milogP vs logP exp) [1] | logP [2, 4] | logP [2, 6] | logP [2, 7] | logP [2, 8] | further results
1 | CC(C)(C)[C@H]1CC[C@H](O)[C@H](F)C1 (relative stereo) [compound 42] | +0.07 | 2.63 |  |  |  | 
2 | CC(C)(C)[C@H]1CC[C@H](O)[C@@H](F)C1 (relative stereo) [compound 43] |  | 2.61 |  |  |  | 
3 | CC(C)(C)[C@H]1CC[C@@H](O)[C@H](F)C1 (relative stereo) [compound 44] | -0.51 | 3.21 |  |  |  | 
4 | CCCC(C)O (stereo not drawn) [G, 2-PentOH, reference compound] |  |  |  |  |  | logP (lit) [3, 5]: +1.19
5 | CC(C)(C)[C@H]1CC[C@H](O)CC1 [K, reference compound] |  |  |  |  |  | logP (lit) [3, 5]: +3.09
6 | CC(C)(C)[C@H]1CC[C@@H](O)CC1 [L, reference compound] |  |  |  |  |  | logP (lit) [3, 5]: +3.02
7 | Oc1ccccc1F [SI4, o-fluorophenol] | +0.13 | 1.7 | 1.7 | 1.7 |  | logP (lit) ([3]; method and temperature not provided, ref C. Hansch, A. Leo, Substituent constants, Wiley 1979): +1.64; logP (lit) ([3]; ref chemidplus database, Hansch, Leo 1979 and Fujita, Iwasa, Hansch 1964 (shake-flask, spectrophotometer, 25 ± 5 °C)): +1.71
8 | OCC(F)(F)F [compound 3, 2,2,2-Trifluoroethanol] | +0.25 |  |  |  |  | 
9 | OC(CF)CF [compound 4] |  |  |  |  |  | logP (physchem; [8]): -0.42; logP (physchem; [9]): -0.421; logP (physchem; [10]): -0.42; logP (physchem; [7]): -0.42; Average logP ([2]; 25 °C, reference TFE (+0.36)): -0.42
10 | CC(O)C(F)(F)F (stereo not drawn) [compound 6] | +0.27 | 0.7 | 0.715 | 0.712 | 0.71 | logP (lit) ([3]; ref chemidplus database, Dillingham et al. 1973 and Hansch, Leo 1979): +0.71; logP (lit) ([3]; shake-flask, 1H or 19F NMR, temperature not reported, ref N. Muller, J. Pharm. Sci. 1986): +0.70
11 | OC(C(F)(F)F)C(F)(F)F [compound 7] |  |  | 1.69 | 1.69 | 1.69 | logP (lit) [3, 5]: +1.66; ΔlogP (exp. logP vs logP lit) [2]: +0.03
12 | OCCC(F)F [compound 10] | +0.48 |  | 0.038 | 0.033 | 0.04 | 
13 | CC(F)(F)CO [compound 11] | +0.59 | 0.11 | 0.11 | 0.113 | 0.11 | 
14 | OCCC(F)(F)F [compound 12] | +0.47 |  | 0.414 | 0.413 | 0.41 | logP (lit) ([3]; ref chemidplus database and N. Muller 1986): +0.39; ΔlogP (exp. logP vs logP lit) [2]: +0.02
15 | CC(C)(O)C(F)(F)F [compound 14] | +0.39 |  | 1.03 | 1.03 | 1.03 | 
16 | CC(O)(C(F)(F)F)C(F)(F)F [compound 15] |  |  |  |  |  | logP (physchem; [9]): 2.08; logP (physchem; logP): 2.08
17 | CC(O)CCF (stereo not drawn) [compound 16] |  |  |  |  |  | logP (physchem; Average logP): 0.08; logP (physchem; [9]): 0.084; logP (physchem; logP): 0.077
18 | CC(O)CC(F)F (stereo not drawn) [compound 17] | +0.46 | 0.42 | 0.417 | 0.42 | 0.42 | 
19 | CC(O)CC(F)(F)F (stereo not drawn) [compound 18] | +0.53 | 0.71 | 0.721 | 0.725 | 0.72 | ΔlogP (exp. logP vs logP lit) [2]: +0.01
20 | CC(O)C(F)(F)C(F)F (stereo not drawn) [compound 19] |  |  |  |  |  | logP (physchem; Average logP): 1.05; logP (physchem; [9]): 1.05; logP (physchem; logP): 1.05
21 | CC(O)C(F)(F)C(F)(F)F (stereo not drawn) [compound 20] |  |  |  |  |  | logP (physchem; Average logP): 1.53; logP (physchem; [9]): 1.53; logP (physchem; logP): 1.53
22 | OCCCCF [compound 21] |  |  |  |  |  | logP (physchem; [8]): 0.09; logP (physchem; [6]): 0.09; logP (physchem; logP): 0.092; logP (physchem; [10]): 0.09; logP (physchem; [7]): 0.09
23 | CC(F)CCO (stereo not drawn) [compound 22, 3-fluorobutan-1-ol] |  |  | 0.173 | 0.166 | 0.17 | 
24 | OCCC(F)(F)C(F)(F)F [compound 24] |  |  |  |  |  | logP (physchem; Average logP): 1.3; logP (physchem; [9]): 1.3; logP (physchem; logP): 1.29
